Laboratory results reported in patent US20090221543A1, “NEW CORTICOSTEROIDS” (NICOX S A., priority 2002, published 2009).
Read-outs that look alike come from different tables or passages of the source.

Experiments:
[1] = system: bronchoconstriction caused by histamine; experiment: Bronchoconstriction caused by histamine in guinea pigs (sGaw, whole body plethysmography); type: in vivo
Procedure: Male guinea pigs weighing between 250 and 300 g for several days before the beginning of the experiment have been accustomed to the restrained and whole-body plethysmograph. Histamine (3 mM dissolved in saline solution 0.9%) has been administered by intranasal route for 20 seconds 24 hours before and 15 minutes after the administration of the tested compounds. NO-Budesonide (635: g/ml) and Budesonide (448: g/ml) dissolved in a mixture (v/v) DMSO 20%, ethanol 10%, saline physiological solution 70%, or the carrier, have been administered to the animals as aerosols, in a sealed room, using a wright nebulizer operating by compressed air at a pressure of 21.38×10^3 Pa (20 p.s.i.) and a flow of 0.5 ml/min. The administration lasted 15 minutes.
To monitor the functionality of the animal airways the “whole body” plethysmography has been used. The animals were watchful and functionality has been determined as specific conductance of the airways (sGaw), expressed in % change of the basal value in the instant immediately after the exposure. To this purpose the animals were provided with a suitable mask and then transferred in a sealed room. The respiratory flow has been determined by a pneumotachograph and a pressure transducer.

glucocorticoid receptor = target: T1, glucocorticoid receptor (Homo sapiens, UniProt P04150); experiment: GR binding assay: displacement of 3H-dexamethasone from glucocorticoid binding sites in human monocytes; conditions: 3H-dexamethasone 50 nM, 37° C., 1 hour
T1 construct: The monocytes have been isolated from human blood by a method based on a density gradient; endogenous in cells; host or cells: primary human blood monocytes (Ficoll-Hypaque isolated), intact cells
T1 sequence (P04150 1-777): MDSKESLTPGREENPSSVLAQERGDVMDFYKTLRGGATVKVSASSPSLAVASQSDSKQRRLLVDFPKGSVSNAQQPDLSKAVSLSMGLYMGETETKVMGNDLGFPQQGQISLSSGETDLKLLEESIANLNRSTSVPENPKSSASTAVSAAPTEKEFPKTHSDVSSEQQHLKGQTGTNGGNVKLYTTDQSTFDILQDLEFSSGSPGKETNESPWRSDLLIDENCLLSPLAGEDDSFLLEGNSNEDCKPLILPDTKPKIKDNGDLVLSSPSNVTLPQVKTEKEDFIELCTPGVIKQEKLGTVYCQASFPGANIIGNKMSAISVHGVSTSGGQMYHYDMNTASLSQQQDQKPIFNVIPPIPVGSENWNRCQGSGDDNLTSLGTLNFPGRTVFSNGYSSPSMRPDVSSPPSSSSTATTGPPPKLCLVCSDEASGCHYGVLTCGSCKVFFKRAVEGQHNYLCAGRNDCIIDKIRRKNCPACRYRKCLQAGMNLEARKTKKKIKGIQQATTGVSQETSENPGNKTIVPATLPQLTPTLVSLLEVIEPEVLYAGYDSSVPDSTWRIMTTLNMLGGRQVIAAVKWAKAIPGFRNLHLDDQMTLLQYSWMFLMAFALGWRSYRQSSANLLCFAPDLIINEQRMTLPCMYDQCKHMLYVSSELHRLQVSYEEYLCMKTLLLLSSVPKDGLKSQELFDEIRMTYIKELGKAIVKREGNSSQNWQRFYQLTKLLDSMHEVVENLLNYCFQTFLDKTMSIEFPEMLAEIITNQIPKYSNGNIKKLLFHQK
Procedure: In these experiments human monocytes having on their surface receptors for glucocorticoids have been used.
In this experiment the capability of the tested substances to displace ^3H-dexamethasone from the bond sites for the glucorticoids present in human monocytes has been evaluated.
The test tube content has been mixed using a Vortex equipment. The test tubes have then been incubated at 37° C. for 1 hour.
After incubation, the cells have been washed 4 times with a saline solution in phosphate buffer cooled in ice bath (PBS, 0.01 M) and the amount of [^3H]-dexamethasone bound to the cells has been determined by liquid scintigraphy. For each sample the concentration of [^3H]-dexamethasone bound to the cells (femtomoles (fmoles)/ml 10^−15 moles/ml) has been calculated by substracting from the measured values the non specific bond value, and then multiplying by the ratio molarity/radioactivity.
The data reported in the Tables are expressed in fmole [^3H]-dexamethasone/ml.

[2] = system: arthritis caused by collagen; experiment: Anti-arthritic activity in collagen-induced arthritis in rats; type: in vivo, Lewis rats; conditions: 4 :moles/kg i.p.; for Hind Legs Articulations Sizes: day 12 to 18, measured on day 18, control 7.03, naive 5.9; for histological analysis of the articulations: day 18; for Leg Average Volume: plethysmometer, control 1.5, naive 1.1; for Hip Functionality Evaluation (Score): score 0 (absence of inflammation) to 3 (serious inflammation), control 1.6; for Hind Legs Articulations Reduction %: with respect to the control group treated only with collagen suspension
Procedure: Lewis female rats weighing 150-200 g fed by a standard diet and with free access to water have been stabulated with cycles of 12 hours light/dark.
To carry out the experiment, the rats were anaesthetized with halothane (day zero), then at the base of the tail, by intradermal injection, a collagen suspension II/Freund's incomplete adjuvant (400: g/rat) was injected, prepared as described hereinafter: nasal bovine collagen of type II (Sigma-Aldrich, 4 mg/ml) has been dissolved in acetic acid (0.01 M) and emulsified with a same volume of cold Freund's incomplete adjuvant (Sigma-Aldrich).
The arthritic pathology became evident between the 11th and the 13th day, with a maximum inflammation at the 18th day in untreated rats.
From the 12th to the 18th day subsequent to the injection, the rats, divided in 3 groups of 10 animals each, have been treated i.p. according to the following protocol:
A fourth group of healthy rats (naive) has been taken as a further reference.
During the treatment with the tested compounds the antiarthritic activity has been evaluated by the following parameters: • average paw volume determined by a plethysmometer; • clinical evaluation of the hip functionality by an arbitrary score from 0 (absence of inflammation) to 3 (serious inflammation, which affects both the hip articulation and the animal paw).
On the 18th day the rats were sacrificed and the diameters of the femoral articulations of the animal hind legs were determined after skin removal; and an histological analysis of the articulations was carried out.
In table 5 there are reported: • the articulation sizes expressed in mm, • the percent reduction of the articulation size calculated with respect to the control rat group treated only with the collagen suspension, • the paw average volume, expressed in ml, daily determined, • the score evaluation of the hip functionality.

[3] = type: in vivo, Sprague Dawley rats; conditions: 5 mg/Kg/die i.p. for 3 weeks
Procedure: […]. The controls have been treated with the carrier (peanut oil 0.5 ml/rat/die i.p. for 3). At the end of the treatment the average arterial pressure (MABP) and the heart-beat have been controlled in the rats. […]. treated group 348±18, n=9).

[4] = system: gastric damage caused by ischaemia-reperfusion; experiment: Gastric damage caused by ischaemia-reperfusion in rats; conditions: 28 :moles/kg by os 2 hours before the ischaemia; control 3 ± 1
primary rat osteoclastes [5] = conditions: 18 h, 1 nM
[6] = system: spinal lesions from trauma; experiment: Recovery of motor functions after spinal lesions from trauma in rats (BBB score); conditions: 20 mg/kg s.c. once a day for 5 days
primary rat osteoclastes [7] = experiment: Osteoclastic activity in vitro (reabsorption areas on calcium phosphate plaques); conditions: 1 nM, 18 hours at 37° C.; control 100
[8] = t0 = 24 hours before the inhalation of the tested compound
[9] = t1 = 15 minutes after the inhalation of the tested compound, aerosol for 15 minutes, equimolar doses (635 / 448 :g/ml)

For `CCCC1O[C@@H]2C[C@H]3[C@@H]4CCC5=CC(=O)C=C[C@]5(C)[C@H]4[C@@H](O)C[C@]3(C)[C@]2(C(=O)CO)O1` (stereo partly drawn) [Budesonide, reference compound], the “specific conductance of the airways (sGaw), % change of the basal value after histamine” value [1, 8] was −28.7 ± 8.8% and the “specific conductance of the airways (sGaw), % change of the basal value after histamine” value [1, 9] was −42.6 ± 15.9%.

With `CCCC1O[C@@H]2CC3C4CCC5=CC(=O)C=C[C@]5(C)C4[C@@H](O)C[C@]3(C)[C@]2(C(=O)COC(=O)c2ccc(CO[N+](=O)[O-])cc2)O1` (stereo partly drawn) [Budesonide-NO, Budesonide 21-(4′-nitrooxymethyl)benzoate] the “inhibition of the bronchoconstriction caused by histamine” value ([1]; aerosol, equimolar doses) was 100%, the “specific conductance of the airways (sGaw), % change of the basal value after histamine” value [1, 8] was −29.7 ± 9.8% and the “specific conductance of the airways (sGaw), % change of the basal value after histamine” value [1, 9] was “+1.4 ± 7.9%”.

In the case of `C[C@@H]1CC2C3CCC4=CC(=O)C=C[C@]4(C)[C@@]3(F)[C@@H](O)C[C@]2(C)[C@@]1(O)C(=O)COC(=O)c1ccc(CO[N+](=O)[O-])cc1` (stereo partly drawn) [Dex-Ar—ONO2, Dexamethasone 21-(4′-nitrooxymethyl)benzoate], the “Bound 3H Dexamethasone” value (glucocorticoid receptor; tested compound 0.1 μM) is reported as 1.1 fmol/mL.

For `C[C@]12CCC(=O)C=C1CCC1C2[C@@H](O)C[C@@]2(C)C1CC[C@]2(O)C(=O)COC(=O)c1ccc(CO[N+](=O)[O-])cc1` (stereo partly drawn) [Hydr-Ar—ONO2, Hydrocortisone 21-(4′-nitrooxymethyl)benzoate], the “Bound 3H Dexamethasone” value (glucocorticoid receptor; tested compound 0.3 :M) was 17.3 fmol/mL and the “Bound 3H Dexamethasone” value (glucocorticoid receptor; tested compound 10 :M) was 0 fmol/mL.

In the case of `C[C@]12CCC(=O)C=C1CC[C@@H]1[C@@H]2[C@@H](O)C[C@@]2(C)[C@H]1CC[C@]2(O)C(=O)COC(=O)CCCO[N+](=O)[O-]` [Hydr-C4—ONO2, Hydrocortisone-21-(4-nitrooxybutyrate), reference compound], the “Bound 3H Dexamethasone” value (glucocorticoid receptor; tested compound 0.3 :M) is reported as 25.6 fmol/mL and the “Bound 3H Dexamethasone” value (glucocorticoid receptor; tested compound 10 :M) is reported as 4.3 fmol/mL.

For `C[C@]12C=CC(=O)C=C1CCC1C2[C@@H](O)C[C@@]2(C)C1CC[C@]2(O)C(=O)COC(=O)c1ccc(CO[N+](=O)[O-])cc1` (stereo partly drawn) [Predn-Ar—ONO2, Prednisolone 21-(4′-nitrooxymethyl)benzoate], the “Hind Legs Articulations Sizes” value [2] was 5.7 mm, the “histological analysis of the articulations” value [2] was “both the synovial inflammation and the infiltration of inflammatory cells in cartilages were minimal, without compromising the cartilages” and the “Leg Average Volume” value [2] was 1.1 mL. For the same compound, the “Hip Functionality Evaluation (Score)” value [2] was 0.1 Score, the “Hind Legs Articulations Reduction %” value [2] was 18.6% and the heart-beat ([3]; control 330±32) was 348±18. For the same compound, the “average arterial pressure (MABP)” value ([3]; controls 110±4) was 128±7, the “Lesion Index (LI)” value [4] was 7 ± 2.1 and the “% Reabsorbed Area with Respect to Control Area” value (primary rat osteoclastes [5]) was 90%. The “Motor Behaviour Evaluation (BBB score)” value ([6]; 3rd day after trauma, 0 = does not walk, 20 = normal, control 4) was 8, the “Motor Behaviour Evaluation (BBB score)” value ([6]; 5th day after trauma, control 6) was 14 and the “Motor Behaviour Evaluation (BBB score)” value ([6]; 7th day after trauma, control 8) was 17. The “Bound 3H Dexamethasone” value (glucocorticoid receptor; tested compound 1 μM) was 0 fmol/mL.

With `C[C@]12C=CC(=O)C=C1CC[C@@H]1[C@@H]2[C@@H](O)C[C@@]2(C)[C@H]1CC[C@]2(O)C(=O)COC(=O)CCCO[N+](=O)[O-]` [Predn-C4—ONO2, Prednisolone 21-(4-nitrooxy)butyrate, reference compound] the “Bound 3H Dexamethasone” value (glucocorticoid receptor; tested compound 1 μM) was 9.9 fmol/mL.

In the case of `C[C@]12C=CC(=O)C=C1CC[C@@H]1[C@@H]2[C@@H](O)C[C@@]2(C)[C@H]1CC[C@]2(O)C(=O)COC(=O)CN1CCN(CCCO[N+](=O)[O-])CC1.O=C(O)C(F)(F)F.O=C(O)C(F)(F)F` [Predn-pyper-C3—ONO2, Prednisolone-21-[2-[4-(3-nitrooxypropyl)piperazin-1-yl]acetate]bis-trifluoromethanacetate], the “Bound 3H Dexamethasone” value (glucocorticoid receptor; tested compound 1 μM) is reported as 2.4 fmol/mL.

For `C[C@]12C=CC(=O)C=C1CC[C@@H]1[C@@H]2[C@@H](O)C[C@@]2(C)[C@H]1CC[C@]2(O)C(=O)COC(=O)CN1CCN(CCCO[N+](=O)[O-])CC1.Cl.Cl` [Predn-pyper-ONO2, Prednisolone-21-[2-[4-(3-nitrooxypropyl)piperazin-1-yl]acetate]bishydrochloride], the “Bound 3H Dexamethasone” value (glucocorticoid receptor; tested compound 1 μM) was 5.5 fmol/mL.

In the case of `C[C@]12C=CC(=O)C=C1CC[C@@H]1[C@@H]2[C@@H](O)C[C@@]2(C)[C@H]1CC[C@]2(O)C(=O)CO` [Prednisolone, reference compound], the “Hind Legs Articulations Sizes” value [2] is reported as 6.1 mm, the “histological analysis of the articulations” value [2] is reported as “cartilage ulcerations and synovial inflammation were present” and the “Leg Average Volume” value [2] is reported as 1.26 mL. The “Hip Functionality Evaluation (Score)” value [2] was 0.6 Score, the “Hind Legs Articulations Reduction %” value [2] was 12.7% and the “Lesion Index (LI)” value [4] was 44 ± 2.5. The “% Reabsorbed Area with Respect to Control Area” value (primary rat osteoclastes [7]) was 148%.
